Experimental data from patent US11364211B2, “Methods for selecting phosphatase selective and non-selective phosphatase inhibitors” (MEDICAL RESEARCH COUNCIL, priority 2015, dated 2022).

Experiments:
PPP1R15A-PP1 complex = target: T1, PPP1R15A-PP1 complex (Homo sapiens, UniProt O75807); test: SPR steady-state binding to R15A-PP1c holophosphatase on streptavidin chip; conditions: steady-state affinity
T1 construct: the cDNAs encoding amino acids 325-636 of PPP1R15A; made in house; host or cells: R15A fragment: E. coli BL21-Gold; BAP-PP1γ: Sf9 insect cells (baculovirus)
Experimental: (§1) The streptavidin coated surface was activated by 1 min injection with a solution of 50 mM NaOH and 1 M NaCl. Biotin-PP1 was diluted in the running buffer (50 mM Tris pH 7.5, 100 mM NaCl, 0.1 mM EGTA, 1 mM MnCl2, 0.05% Tween 20) and injected at approximately 300 nM concentration directly to streptavidin coated surface for 100 sec or to reach immobilization level of biotin-PP1 corresponding to ˜7000 RU. A blank immobilization was performed for one of the SA sensor chip surface to use as a reference.
(§2) With minor deviations, the same procedure and conditions were used in all binding experiments. Small molecules were stored as 50 mM stock solutions in 100% DMSO. Prior to determining binding constants, serial dilutions of either 12 or 8 concentrations of the compounds were prepared in the running buffer in a 96-well plate. […] Then, without regenerating the surface, the compound dilution series was injected onto the surface of the chip Sensorgrams were analyzed using the Biacore T200 evaluation software and the binding constants determined based on a steady-state model. Kinetic experiments are carried out using different concentrations of the compound and their respective equilibrium binding levels determined.
(§3) Surface Plasmon Resonance (SPR) was used to measure the binding affinity of compounds to the PPP1R15A/B-PP1 phosphatase complex. Biotin acceptor peptide (BAP) was fused to the N-terminus of PP1γ, which enables the biotinylation of the BAP-tagged protein in Sf9 insect cells. After purification the BAP-PP1γ protein was captured on a streptavidin sensor chip (SA-chip, GE healthcare) to a response level of ˜5.000 RU. Using controlled biotinylation enables orientated and uniform immobilization on the sensor chip surface. The PP1γ was then used to capture PPP1R15A/B and form a holophosphatase complex on the surface of the streptavidin chip. This complex can then be used to test binding of compounds. 10 μM PPP1R15A/B protein concentration was used to form the holophosphatase complex during a 80 s injection. […] After the concentration series (8 or 12 concentrations) is completed the surface is regenerated with 3 M NaCl and we can capture R15A/B again to form a fresh holophosphatase complex to measure a binding of another compound concentration series. Analysing the level of equilibrium binding as a function of concentration gives interaction affinities or steady-state binding affinity (KD).
(§4) The streptavidin coated surface was activated by 1 minute injection with a solution of 50 mM NaOH and 1 M NaCl three times at a flow rate of 10 μl/min. bio-GBZ or bio-PP1c was diluted in the running buffer (50 mM Tris pH 7.5, 100 mM NaCl, 0.1 mM EGTA, 0.05% Tween 20, 0.1% DMSO) and injected at approximately 300 nM concentration at a flow rate of 10 μl/min directly to streptavidin coated surface to reach immobilization level of bio-GBZ or bio-PP1c corresponding to ˜200 and 6000 RU, respectively. A blank immobilization was performed for one of the SA sensor chip surface to use as a reference.
(§5) With minor deviations, the same procedure and conditions were used in all binding experiments. Small molecules were stored as 50 mM stock solutions in 100% DMSO. Prior to determining binding constants, serial dilutions of either 12 or 8 concentrations of the compounds were prepared in the running buffer in a 96-well plate. […] This was followed by 1 minute stabilization period, to wash off any unspecific binding. […]

PPP1R15B-PP1 complex = target: T2, PPP1R15B-PP1 complex (Homo sapiens, UniProt Q5SWA1); test: SPR steady-state binding to R15B-PP1c holophosphatase on streptavidin chip; conditions: for Kd: SPR, steady-state affinity
T2 construct: 340-698 of PPP1R15B were His-tagged and cloned into pMAL-c5x; made in house; host or cells: R15B fragment: E. coli BL21-Gold; BAP-PP1γ: Sf9 insect cells (baculovirus)
Experimental: as §1, §2, §3, §4
With minor deviations, the same procedure and conditions were used in all binding experiments. Small molecules were stored as 50 mM stock solutions in 100% DMSO. Prior to determining binding constants, serial dilutions of either 12 or 8 concentrations of the compounds were prepared in the running buffer in a 96-well plate. […] This was followed by 1 minute stabilization period, to wash off any unspecific binding. Then, without regenerating the surface, the compound dilution series was injected onto the surface of the chip at a flow rate of 30 μl/min for 1 minute, followed by 2 minutes dissociation time. After each dilution series the surface was regenerated using 3 M NaCl for 90 seconds. […] In order to be able to correct for small variations in DMSO concentration between samples, eight solvent samples ranging from 0.06 to 8% DMSO were injected every 50th cycle. The flow cell temperature was 10° C.

PP1c [1] = target: T3, PP1c (Homo sapiens, UniProt P36873); test: SPR binding to PP1c alone immobilized on chip; conditions: PP1c alone, read-out: affinity (KD) for PP1
Experimental: as §4
as §5, with “binding. Then, without regenerating the surface, the compound dilution series was injected onto the surface of the chip at a flow rate of 30 μl/min for 1 minute, followed by 2 minutes dissociation time.” for “binding.”
Kinetic experiments are carried out using different concentrations of the compound and their respective equilibrium binding levels determined.

PP1c [2] = target: T3, PP1c; test: PP1c catalytic activity assay (EnzChek); type: biochemical; conditions: purified PP1c 30 nM, 30 minutes at 4° C.
Experimental: Residual activity of PP1c was then measured using the EnzChek Phosphatase Assay Kit (Thermo Fisher Scientific) according to the supplier's instructions.

T2 sequence (Q5SWA1 340-698): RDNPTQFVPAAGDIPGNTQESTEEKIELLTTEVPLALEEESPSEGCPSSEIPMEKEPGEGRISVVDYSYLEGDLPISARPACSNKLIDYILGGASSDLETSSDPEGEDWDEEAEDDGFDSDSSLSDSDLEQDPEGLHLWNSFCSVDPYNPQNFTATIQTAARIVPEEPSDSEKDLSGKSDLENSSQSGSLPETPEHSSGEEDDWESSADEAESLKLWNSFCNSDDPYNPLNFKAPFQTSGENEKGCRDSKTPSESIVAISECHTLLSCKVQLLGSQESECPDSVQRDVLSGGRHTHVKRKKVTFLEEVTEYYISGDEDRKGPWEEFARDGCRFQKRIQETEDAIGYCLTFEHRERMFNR
T2 sequence (P36873 whole entry partner, the tested form may be a part): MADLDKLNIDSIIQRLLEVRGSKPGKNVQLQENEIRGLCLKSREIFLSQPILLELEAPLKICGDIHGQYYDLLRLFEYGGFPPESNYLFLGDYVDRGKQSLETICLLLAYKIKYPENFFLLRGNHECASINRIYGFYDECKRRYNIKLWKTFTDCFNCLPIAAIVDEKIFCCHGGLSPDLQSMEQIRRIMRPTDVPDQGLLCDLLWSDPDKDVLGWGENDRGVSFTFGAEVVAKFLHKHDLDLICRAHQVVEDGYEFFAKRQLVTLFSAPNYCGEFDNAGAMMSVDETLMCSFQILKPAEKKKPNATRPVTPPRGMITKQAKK
T1 sequence (O75807 325-636): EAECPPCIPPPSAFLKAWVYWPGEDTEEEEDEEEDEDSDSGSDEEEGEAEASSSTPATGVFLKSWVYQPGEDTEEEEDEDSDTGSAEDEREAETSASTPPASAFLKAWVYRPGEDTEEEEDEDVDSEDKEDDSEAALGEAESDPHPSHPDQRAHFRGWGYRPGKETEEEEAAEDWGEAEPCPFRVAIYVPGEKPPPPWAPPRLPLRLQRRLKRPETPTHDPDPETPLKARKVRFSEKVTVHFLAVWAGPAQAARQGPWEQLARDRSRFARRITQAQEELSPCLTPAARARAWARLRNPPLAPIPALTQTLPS
T1 sequence (P36873 whole entry partner, the tested form may be a part): as the sequence (P36873 whole entry partner, the tested form may be a part) above
T3 sequence (P36873 whole entry): as the sequence (P36873 whole entry partner, the tested form may be a part) above

| Compound | Kd (PPP1R15A-PP1 complex) [µM] | Kd (PPP1R15B-PP1 complex) [µM] | difference in affinities between PPP1R15A-PP1 and PPP1R15B-PP1 (PPP1R15B-PP1 complex; from SPR KD values) | Kd (PP1c [1]) [µM] | inhibition of PP1c in enzymatic assay (PP1c [2]) |
| --- | --- | --- | --- | --- | --- |
| N=C(N)N/N=C/c1ccc(F)cc1Cl [Example 2, (E)-2-(2-chloro-4-fluorobenzylidene)hydrazine-1-carboximidamide] | 5 | 0.143 | greater than 30 fold |  |  |
| N=C(N)N/N=C/c1cc(Cl)c(Cl)c(Cl)c1 [Example 3, (E)-2-(3,4,5-trichlorobenzylidene)hydrazine-1-carboximidamide] | 3.93 |  |  |  |  |
| O=C(/C=C/c1ccccc1)NC(NC(=S)Nc1cccc2cccnc12)C(Cl)(Cl)Cl (centres unmarked) [Salubrinal] | > 20 | > 20 |  | > 20 |  |
| COC[C@@H]([C@H](O)[C@H](O)C(=O)NCC[C@H](C)c1nc(/C=C/C[C@@H]2O[C@]3(C[C@@H](O)[C@@H]2C)O[C@H]([C@H](C[C@H](O)[C@H](C)[C@H](O)[C@H](C)/C=C(C)/C(C)=C/C=C/C(C)=C\C#N)OC)[C@H](OP(=O)(O)O)C3(C)C)co1)N(C)C [calyculin A, reference compound] |  |  |  |  | a catalytic inhibitor of PP1 |
